Laboratory results reported in patent US7129073B2, “Regulation of neuronal function through metabotropic glutamate receptor signaling pathways” (The Rockefeller University, priority 2001, dated 2006).
“Also recorded” adds a separate entry of the source.

What was measured:
[1] = tested on: Ser137 of DARPP-32 (CK1 site); experiment: DARPP-32 phospho-Ser137 immunoblot in neostriatal slices; assay type: cell-based, mouse; details: for effect of pretreatment on the DHPG effect on Ser137 phosphorylation: before DHPG 100 μM 2 min, L-AP3 100 μM 20 min, ZM241385 100 μM, cyclosporin A 5 μM 1 h; for effect of pretreatment on the DHPG effect on Ser137 phosphorylation / effect on basal phosphorylation of Ser137: U73122 10 μM 30 min, BAPTA/AM 20 μM
Method: (§1) Neostriatal slices were prepared from male C57/BL6 mice (6–8 weeks old) in accordance with methods known in the art (Nishi, A. et al. 1997, J. Neurosci. 17:8147–8155). Slices were treated with a drug. After drug treatment, slices were immediately frozen in liquid nitrogen, and stored at −80° C. until assayed.
(§2) Frozen slices were sonicated in hot homogenization buffer containing 1% SDS and 50 mM NaF, and samples were boiled for 10 minutes. SDS-PAGE sample buffer was then added and samples were boiled for 5 minutes. Samples (approximately 120 μg of total protein) were separated by SDS-PAGE (10% polyacrylamide) and then transferred to nitrocellulose. In most studies, immunoblots were first probed with anti-phospho-Ser137 DARPP-32 antibody. The blots were then stripped and probed with anti-phospho-Thr75 DARPP-32 antibody. Blots were stripped again and probed with anti-total DARPP-32 antibody. […] Chemiluminescence was detected by autoradiography and bands were quantified by analysis of scanned images using NIH IMAGE 1.52 software. Data were statistically analyzed by Student's t test in Microsoft EXCEL™ software as indicated.
(§3) Neostriatal slices were prepared from male C57/BL6 mice (6–8 weeks old) as disclosed (22). Slices were treated with drugs as specified in the text and figure legends. After drug treatment, slices were immediately frozen in liquid nitrogen, and stored at −80° C. until assayed.
(§4) Frozen slices were sonicated in hot homogenization buffer containing 1% SDS and 50 mM NaF, and samples were boiled for 10 min. SDS-PAGE sample buffer was then added and samples were boiled for 5 min. Samples (approximately 120 μg protein) were separated by SDS-PAGE (10% polyacrylamide) and transferred to nitrocellulose. Immunoblots were first probed with antiphospho-Ser-137 DARPP-32 antibody. The blots were stripped and probed with anti-phosphoThr-75 DARPP-32 antibody. Blots were stripped again and probed with anti-total DARPP-32 antibody. Antibody binding was detected by enhanced chemiluminescence (ECL) using X-ray film, and images were analyzed by laser scanning densitometry using NIH Image 1.52 software. Data were statistically analyzed by Student's t-test using Microsoft EXCEL™ software as indicated.

[2] = tested on: Thr75 of DARPP-32 (Cdk5 site); experiment: DARPP-32 phospho-Thr75 immunoblot in neostriatal slices; assay type: cell-based, mouse; details: for effect of pretreatment on the DHPG effect on Thr75 phosphorylation: before DHPG 100 μM 2 min, L-AP3 100 μM 20 min, ZM241385 100 μM, cyclosporin A 5 μM 1 h; for effect of pretreatment on the DHPG effect on Thr75 phosphorylation / effect on basal phosphorylation of Thr75: U73122 10 μM 30 min, BAPTA/AM 20 μM
Method: as §1, §2, §3, §4

HA-tagged CK1ε = experiment: kinase activity of HA-CK1ε immunoprecipitated from transfected N2a cells, DARPP-32 as substrate; assay type: cell-based; details: 30 min before DHPG 100 μM 2 min, CKI-7 100 μM, L-AP3 100 μM, U73122 10 μM, BAPTA/AM 20 μM, cyclosporin A 1 μM
Method: Neuroblastoma N2a cells were cultured in DMEM containing 5% fetal bovine serum (FBS) to 50–60% confluency. Four micrograms of the expression plasmid for HA-CK1ε were transfected into N2a cells in 100 mm dishes using FuGENE™ 6. Twenty-four hours after transfection, cells were incubated in phosphate-buffered Krebs-Henseleit solution (Sigma) for 10 minutes at room temperature. Cells were then incubated with or without CKI inhibitor for 30 minutes before treating with the group I mGluR agonist (S)-3,5-DHPG (100 μM) for 2 minutes. Cells were then lysed in one ml of lysis buffer containing 1% Nonidet P-40 (NP-40), 150 mM NaCl, 0.1% SDS, 50 mM Tris (pH 8.0), 5 mM Na3VO4, 20 mM NaF, 20 mM β-glycerol-phosphate and protease inhibitors. Lysates were centrifuged at 10,000 g and supernatants were used for immunoprecipitation and kinase assay.
For immunoprecipitation of CKI from N2a cells, lysates (1 mg of total protein) were pre-cleared with 5 μl of mouse IgG and 50 μl of protein A agarose for 30 minutes. Five μl of anti-HA antibody were added and samples were incubated for 1 hour at 4° C. Five μl of anti-mouse rabbit IgG and 50 μl of protein A agarose were then added for 45 minutes. Immuno-complexes were washed three times in lysis buffer, two times in kinase buffer (30 mM Hepes (pH 7.5), 7 mM MgCl2, 0.5 mM DTT). CKI assays were performed in a 30 μl assay volume with 2 μg of purified DARPP-32, 500 μM ATP and 5 μCi γ-^32P-ATP. Samples were incubated at 30° C. for 20 minutes, reactions were stopped by addition of SDS-sample buffer, and samples were boiled for 5 minutes. Samples were separated by SDS-PAGE (12% polyacrylamide). SDS-PAGE gels were dried and exposed to Kodak film for autoradiography. Bands were quantified by analysis using a Molecular Dynamics PhosphorImager.
Neuroblastoma N2a cells were cultured to 50–60% confluence in DMEM containing 5% fetal bovine serum. Four μg of the expression plasmid for HA-CK1ε or myc-MM2-CK1ε was transfected into N2a cells in 100 mm dishes using FuGENE6™. Twenty-four hours after transfection, cells were incubated at room temperature in phosphate-buffered Kreb's-Henseleit solution (Sigma) for 10 min and then with or without inhibitors for 30 min before treating with (S)-3,5-DHPG, for 2 min. Cells were then lysed in 1 ml of radio-immunoprecipitation (RIPA) buffer containing 1% NP-40, 150 mM NaCl, 0.1% SDS, 50 mM Tris, pH 8.0, 5 mM Na3VO4, 20 mM NaF, 20 mM β-glycerol-phosphate and protease inhibitors. Lysates were centrifuged at 10,000 g, and supernatants were used for immunoprecipitation and kinase assay.
For immunoprecipitation of CK1ε from N2a cells, lysates (1 mg of total protein) were precleared with 5 μl of mouse IgG (ICN) and 50 μl of protein A agarose for 30 min. Five μl (approximately 2 μg) of anti-HA or anti-myc antibody was added and samples were incubated for 1 h at 4° C. Five μl of anti-mouse rabbit IgG and 50 μl of protein A agarose were then added for 45 min. Immuno-complexes were washed 3 times in lysis buffer and 2 times in kinase buffer (30 mM Hepes, pH 7.5, 7 mM MgCl2, 0.5 mM DTT).
(§5) CK1 assays were performed in a 30 μl assay volume with 2 μg of purified DARPP-32, 500 μM ATP and 5 μCi γ-^32P-ATP. Reactions were started by addition of the ATP. Samples were incubated at 30° C. for 10 min and reactions were stopped by addition of SDS-sample buffer and boiled for 5 min. Samples were separated by SDS-PAGE (12% polyacrylamide). SDS-PAGE gels were dried and exposed to Kodak film for autoradiography. Results were quantified using a Molecular Dynamics PHOSPHORIMAGER™. Immunoprecipitation and assay of Cdk5 were performed as disclosed (20).

Cdk5 = Cdk5 kinase activity immunoprecipitated from neostriatal slices, histone H-1 as substrate; assay type: cell-based, mouse; details: for effect of pretreatment on the effect of DHPG on Cdk5 kinase activity: CKI-7 dose-dependent, U73122 10 μM, BAPTA/AM 20 μM, cyclosporin A 5 μM
Method: as §1
For Cdk5 immunoprecipitation, striatal tissue slices (approximately 150 μg total protein) were lysed using a Dounce homogenizer and 1 ml of lysis buffer (150 mM NaCl, 20 mM Tris-HCl (pH 7.4), 1 mM EDTA, 0.5% NP-40, 5 mM NaF, 5 mM Na3PO4 and protease inhibitors). Lysates were centrifuged at 10,000 g for 10 minutes at 4° C. Supernatants were pre-cleared by adding rabbit IgG-conjugated agarose for 40 minutes at 4° C. Ten μl of Cdk5 antibody conjugated to agarose were added and samples were incubated for 1 hour at 4° C. with mixing. Agarose pellets were collected and washed three times with 1 ml of lysis buffer and two times with kinase assay buffer (50 mM Hepes (pH 7.5), 10 mM MgCl2, 1 mM DTT). Cdk5 kinase assays were performed in a 30-μl reaction mixtures with 2 μg Histone H-1, 500 μM ATP and 5 μCi of γ-^32P-ATP. Samples were incubated at 30° C. for 10 minutes, reactions were stopped by addition of SDS-sample buffer, and samples were boiled for 5 minutes. Samples were separated by SDS-PAGE and analyzed as disclosed above for CKI assays. Data were analyzed by Student's t-test in Microsoft Excel software as indicated, with significance defined as p<0.05.
as §5

[3] = tested on: voltage-dependent Ca2+ channels; experiment: whole-cell recordings of voltage-dependent Ca2+ channels in dissociated neostriatal neurons; assay type: cell-based, mouse; details: CK1–7 100 μM, butyrolactone 25 μM (FIG. 6)
Method: Neostriatal neurons from 3- to 4-week-old mice were acutely dissociated by using procedures similar to those disclosed in Eberwine et al. (1995, Prog. Brain Res. 105:117–126). Whole-cell current recordings used standard voltage-clamp techniques. The internal solution consisted of 180 mM N-methyl-D-glucamine, 40 mM Hepes, 4 mM MgCl2, 0.5 mM 1,2-bis(2-aminophenoxy)ethane-N,N,N′,N′-tetraacetate, 12 mM phosphocreatine, 2 mM Na2ATP, 0.2 mM Na3GTP, 0.1 mM leupeptin (pH 7.2–7.3), 265–270 mosm/liter. The external solution consisted of 135 mM NaCl, 20 mM CsCl, 1 mM MgCl2, 10 mM Hepes, 0.001 mM tetrodotoxin, 5 mM BaCl2, 10 mM glucose (pH 7.3), 300–305 mosm/liter. Recordings were obtained with an Axon Instruments 200B patch clamp amplifier that was controlled and monitored with an IBM PC running PCLAMP™ (v. 8) with a DigiData 1320 series interface (Axon Instruments, Foster City, Calif.). Electrode resistances were typically 2–4 MΩ in the bath. After seal rupture, series resistance (4–10 MΩ) was compensated (70–90%) and periodically monitored. Drugs were applied with a gravity-fed “sewer pipe” system. The array of application capillaries was positioned 250 μm from the cell under study. Solution changes were effected by altering the position of the array with a DC drive system controlled by a microprocessor-based controller (Newport-Klinger, Irvine, Calif.). Data analyses were performed with AXOGRAPH™ (Axon Instruments), […]™ (Albeck Software, Reading, Pa.), and […]™ (Abacus Concepts, Berkeley, Calif.).

ER = details: read-out: IC50, competition with fluorescein-labeled estradiol for binding to ER; FP-based assay; cited from earlier work
[4] = 1 μM butyrolactone, 30 min before DHPG 2 min
[5] = butyrolactone 5 μM and 10 μM, 30 min before DHPG 2 min
[6] = slices treated with drug alone: DHPG 100 μM, ionomycin 2 μM

N[C@@H](CP(=O)(O)O)C(=O)O [L-AP3]
effect of pretreatment on the DHPG effect on Ser137 phosphorylation [1]: blocked
effect of pretreatment on the DHPG effect on Thr75 phosphorylation [2]: blocked
effect of pre-incubation on the ability of DHPG to increase CK1ε activity (HA-tagged CK1ε): blocked

COc1ccc2c(c1)CC[C@@H]1[C@@H]2CC[C@]2(C)[C@@H](NCCCCCCN3C(=O)C=CC3=O)CC[C@@H]12 [U73122]
effect on basal phosphorylation of Ser137 [1]: did not change
effect of pretreatment on the DHPG effect on Ser137 phosphorylation [1]: abolished
effect on basal phosphorylation of Thr75 [2]: did not change
effect of pretreatment on the DHPG effect on Thr75 phosphorylation [2]: abolished
effect of pre-incubation on the ability of DHPG to increase CK1ε activity (HA-tagged CK1ε): abolished
effect of pretreatment on the effect of DHPG on Cdk5 kinase activity (Cdk5): abolished

O=C1CCCO1 [butyrolactone]
effect on basal or DHPG-stimulated DARPP-32 phosphorylation at Ser137 [1, 4]: little effect
effect on basal and DHPG-stimulated phosphorylation of Ser137 [1, 5]: unaffected
effect on basal or DHPG-stimulated DARPP-32 phosphorylation at Thr75 [2, 4]: little effect
effect on basal and DHPG-stimulated phosphorylation of Thr75 [2, 5]: decreased in a dose-dependent manner
effect on basal Ca2+ currents [3]: significant reduction; also recorded: reduced
effect on the enhancement of Ca2+ currents by DHPG ([3]; DHPG 100 μM): eliminated

17β-estradiol
IC50 (ER): 0.0056 µM

CC(=O)OCOC(=O)CN(CC(=O)OCOC(C)=O)c1ccccc1OCCOc1ccccc1N(CC(=O)OCOC(C)=O)CC(=O)OCOC(C)=O [BAPTA/AM]
effect on basal phosphorylation of Ser137 [1]: did not change
effect of pretreatment on the DHPG effect on Ser137 phosphorylation [1]: abolished
effect on basal phosphorylation of Thr75 [2]: did not change
effect of pretreatment on the DHPG effect on Thr75 phosphorylation [2]: abolished
effect of pre-incubation on the ability of DHPG to increase CK1ε activity (HA-tagged CK1ε): abolished
effect of pretreatment on the effect of DHPG on Cdk5 kinase activity (Cdk5): abolished

Nc1nc(NCCc2ccc(O)cc2)nc2nc(-c3ccco3)nn12 [ZM241385]
effect of pretreatment on the DHPG effect on Ser137 phosphorylation [1]: did not affect
effect of pretreatment on the DHPG effect on Thr75 phosphorylation [2]: did not affect

C[C@H](CCC(=O)O)C[C@H](C)C[C@H](C)C(=O)/C=C(\O)[C@H](C)C[C@H](C)C/C=C/[C@@H](C)[C@@H](O)[C@@H](C)[C@@H](O)C[C@@H]1CC[C@@](C)([C@H]2CC[C@@](C)([C@@H](C)O)O2)O1 [ionomycin]
effect on phosphorylation of Ser137 in DARPP-32 [1, 6]: increased phosphorylation
effect on phosphorylation of Thr75 in DARPP-32 [2, 6]: increased phosphorylation
increase in Cdk5 kinase activity (Cdk5; ionomycin 2 μM for 2 min): 2 fold

4-OH-tamoxifen
IC50 (ER): 0.026 µM
